From patent US20250241965A1, “METHOD TO IMPROVE CELL VIABILITY OF CARDIOMYOCYTES” (UNIVERSITY OF WASHINGTON, priority 2022, published 2025)

Key:
[1] = system: pluripotent stem cells (PSCs) differentiating to cardiomyocytes; experiment: Cell yield during differentiation of pluripotent stem cells to cardiomyocytes in suspension culture; format: cell-based; settings: for cell counts (cells/mL) during differentiation, FIG. 4: versus CBP conditions
Description: FIG. 1A depicts the timeline, base media, media supplements, small molecules for the differentiation of pluripotent stem cells to cardiomyocytes. Addition of CHIR, Wnt agonist, occurs at Day 3 of differentiation, while the Wnt antagonist Wiki, is added either 48 or 44 hours after CHIR addition. The timing from CHIR to WIKI addition is optimized for each cell line and/or reagent change to most efficiently induce cardiomyocye differentiation.
(§1) FIG. 3 (top) illustrates the current best practice (CBP) differentiation methodology including timeline, base media, media supplements and the addition of small molecules. FIG. 3 (bottom) the experimental set up to test three different methodologies designed to improve the cell yield in comparison to CBP (1). To improve the total cell yield, adding an additional media change on the day just prior to the initiation of significant cell loss (2), or the addition of ROCK inhibitor at the points of small molecule addition (CHIR or WIKI, respectively) were tested. To monitor for the fate of cells in the experiment, the cultures were monitored for cell counts (both in single cell suspension and in aggregates), glucose, lactate, and pH using a Blood Gas Analyzer (BGA); apoptosis was analyzed by AnnexinV staining; additionally, mesoderm formation was monitored by flow cytometry for CD56 and PDGFRa to determine if the addition of ROCK inhibitor changed the developmental trajectory of the cells.
FIG. 4 (top) once again illustrates the experimental design as described in […], for reference. FIG. 4 (bottom) indicates the cell counts at multiple time-points from each condition during the differentiation of experiment #19. 19-1 is CBP conditions, 19-2 is media change at day 6 conditions (including the addition of Wiki 5 uM), 19-3 is conditions that received ROCK inhibitor at the time of small molecule addition. At day 6 of differentiation cells numbers in condition 19-3 were elevated to the point of needing to double the media volume and therefore cells were split into 19-3A and 19-3B.
involves multiple steps of PSC expansion and differentiation to the desired lineage. As presented here PSCs are thawed from a suspension PSC bank (PMID: 26318718) and aggregated in suspension culture, with the addition of the ROCK inhibitor Y-27632, shown to permit survival of dissociated PSCs (PMID: 17529971). Following expansion, the cells are induced to differentiate to mesoderm and then cardiomyocytes by modulating Wnt signaling using CHIR99021 to induce mesoderm (PMID: 23257984), followed small molecule Wnt inhibitor, WIKI4 (PMID: 23227175) to specify mesoderm to the cardiomyocyte lineage (FIG. 3).
loss during the addition of CHIR99021 and WIKI4. […] Additionally, at differentiation day 13, the culture with the addition of Y-27632 yielded nearly 4× more cardiomyocytes than cultures without. Subsequently Y-27632 was added to all cultures during the differentiation (FIG. 4).

[2] = system: pluripotent stem cells (PSCs) differentiating to cardiomyocytes; experiment: Apoptosis by AnnexinV staining (flow cytometry) during cardiomyocyte differentiation; format: cell-based
Text: as §1
FIG. 6 illustrates that apoptosis correlates with the cell loss detected in CBP conditions (19-1) and media change (including Wiki) conditions (19-2), in comparison to ROCK inhibitor conditions (19-3). This illustration also includes an additional experimental set which includes addition of ROCK inhibitor at time-points of small molecule addition (20-1), or CBP conditions (20-2). […]

| Compound | cell loss by end of culture, FIG. 1B ([1]; additional WIKI4 on day 6 of differentiation, 8 uM CHIR) | cell counts (cells/mL) during differentiation, FIG. 4 ([1]; condition 19-2: media change at day 6 including addition of Wiki 5 uM) | cells/mL in the final culture, FIG. 1B ([1]; media change with no additional WIKI4 on day 6, Day 20 of differentiation) | AnnexinV staining (apoptosis), FIG. 6 ([2]; condition 19-2: media change at day 6 including Wiki) | yield of pre-cardiomyocytes ([1]; Y-27632 added in combination with CHIR99021 and WIKI4, measured at day 6 of differentiation (4.7E5 cells/mL without)) | cell counts (cells/mL) during differentiation, FIG. 4 ([1]; condition 19-3: ROCK inhibitor at the time of small molecule (CHIR, WIKI) addition) | cardiomyocyte yield relative to cultures without Y-27632 ([1]; differentiation day 13) | yield of pre-cardiomyocytes relative to culture without Y-27632 ([1]; in combination with CHIR99021 and WIKI4, day 6 of differentiation) | AnnexinV staining (apoptosis), FIG. 6 ([2]; condition 19-3: ROCK inhibitor at time-points of small molecule addition) |
| --- | --- | --- | --- | --- | --- | --- | --- | --- | --- |
| COc1ccc(-n2c(SCCCN3C(=O)c4cccc5cccc(c45)C3=O)nnc2-c2ccncc2)cc1 [WIKI4] | extensive loss of cells | even more rapid loss of cells | roughly 8E5 cells/mL | high | – | – | – | – | – |
| C[C@@H](N)[C@H]1CC[C@H](C(=O)Nc2ccncc2)CC1 [Y-27632] | – | – | – | – | 1.1E6 cells/mL | significantly higher cell numbers | ~4 × | greater than double the yield | low |
